# “Also recorded” adds a separate entry of the source.
# Key:
# actin = assay: Image-based drug perturbation of GFP-tagged hiPSC lines: actin; assay type: cell-based, human
# Description: (§1) The pipeline was prototyped using a small suite of well-characterized compounds that include brefeldin A, paclitaxel, rapamycin, wortmannin and staurosporine (FIG. 26A). Low-resolution imaging (24× magnification) was used to test a matrix of concentrations and time points for each compound of interest to establish an initial set of conditions for each perturbation. hiPSC colonies were monitored for morphologic changes using transmitted light (FIG. 26B) and an endogenously GFP-tagged structure, such as microtubules (FIG. 26C). After establishing an end point response for several compounds, high-resolution (120× magnification) imaging of multiple cell lines was performed under standardized perturbation parameters, in the presence of dyes to label the nucleus and cell membrane for reference purposes (FIG. 27). […] Cells were treated with the indicated perturbation agent at a pre-selected concentration and time point established in phase I.
# (§2) Fluorescence quantification of the 3D images were used to analyze drug-induced Golgi reorganization, cytoskeleton reorganization, and cell junction reorganization. To quantify the relative abundance of each structure of interest (e.g. Golgi as presented above), the pixel intensities of the GFP channel (488 nm) were summed across the entire z-stack. […]
# ER = assay: Image-based drug perturbation of GFP-tagged hiPSC lines: ER; assay type: cell-based, human; settings: hiPS cells undergoing mitosis
# Description: as §1
# microtubules = assay: Image-based drug perturbation of GFP-tagged hiPSC lines: microtubules; assay type: cell-based, human
# Description: as §1, §2
# cell junctions = assay: Image-based drug perturbation of GFP-tagged hiPSC lines: cell junctions; set-up: species or system human
# Description: as §1
# hiPSC colonies = assay: Image-based drug perturbation of hiPSC colonies: colony and cell morphology; set-up: species or system human
# Description: as §1
# ZO-1 = assay: Z-axis intensity profiling of 3D images: cell junction reorganization (ZO-1); assay type: cell-based, human; settings: x-z maximum intensity projection, intensity profile plot
# Description: (§3) The pipeline was prototyped using a small suite of well-characterized compounds that include brefeldin A, paclitaxel, rapamycin, wortmannin and staurosporine (FIG. 26A). Low-resolution imaging (24× magnification) was used to test a matrix of concentrations and time points for each compound of interest to establish an initial set of conditions for each perturbation. hiPSC colonies were monitored for morphologic changes using transmitted light (FIG. 26B) and an endogenously GFP-tagged structure, such as microtubules (FIG. 26C). After establishing an end point response for several compounds, high-resolution (120× magnification) imaging of multiple cell lines was performed under standardized perturbation parameters, in the presence of dyes to label the nucleus and cell membrane for reference purposes (FIG. 27). […]
# (§4) For drug-induced effects on cell junction reorganization, representative maximum intensity projections of a z-stack along the x-z axis are shown in FIG. 30. From these projections, the mean pixel intensity for the GFP channel along the x-axis, from the top of the image to the bottom, was measured to generate an intensity profile plot. […] To analyze the change in desmosome number, the number of 3D objects in a z-stack were counted using the 3D Object Counter tool in Fiji. […] Data were analyzed by Student's t-test (** p<0.01).
# desmosomes = assay: Image-based drug perturbation of GFP-tagged hiPSC lines: desmosomes (3D object count); assay type: cell-based, human
# Description: as §3, §4
# myosin = assay: Relative fluorescence quantification and z-axis intensity profiling: myosin; assay type: cell-based, human; settings: for myosin organization through the thickness of the cell: z-axis intensity profiling
# Description: as §1
# Fluorescence quantification of the 3D images were used to analyze drug-induced Golgi reorganization, cytoskeleton reorganization, and cell junction reorganization. To quantify the relative abundance of each structure of interest (e.g. Golgi as presented above), the pixel intensities of the GFP channel (488 nm) were summed across the entire z-stack. For each experiment, the same threshold was used to exclude background intensity noise across the control (DMSO) and experimental (perturbation agent) groups. The data were plotted by averaging z-stack data from a time interval (30-minute) and compared to the control DMSO data. Dunnett's multiple comparison test was used to perform one-way ANOVA between the different time intervals against the control group.
# Golgi = assay: Fluorescence quantification of 3D images: drug-induced Golgi reorganization; assay type: cell-based, human; settings: GFP channel intensity summed over z-stack, 30-minute intervals, vs DMSO
# Description: as §1, §2
# [1] = 3D fluorescence quantification vs DMSO
molecule,measurement,setting,value
CC(=O)O[C@H]1C(=O)[C@@]2(C)[C@H]([C@H](OC(=O)c3ccccc3)[C@]3(O)C[C@H](OC(=O)[C@H](O)[C@@H](NC(=O)c4ccccc4)c4ccccc4)C(C)=C1C3(C)C)[C@]1(OC(C)=O)CO[C@@H]1C[C@@H]2O [paclitaxel],effect on bulk organization of the actin bundles,actin; GFP-tagged hiPSC,minimal effects
same,effect on organization of the ER,ER,induced aberrant reorganization of the ER
same,effect on microtubule organization,"microtubules; GFP-tagged hiPSC, high-resolution (120x) imaging, vs DMSO control",increased microtubule bundle thickness and altered the shape and position of the mitotic spindle; also recorded: stabilized the microtubules
same,microtubule relative localized fluorescence intensity,"microtubules; over time, vs DMSO",trend of increased relative localized fluorescence intensity over time
same,effect on bulk organization of cell junctions,cell junctions,minimal effects
CN[C@@H]1C[C@H]2O[C@@](C)([C@@H]1OC)n1c3ccccc3c3c4c(c5c6ccccc6n2c5c31)C(=O)NC4 [staurosporine],effect on colony and cell morphology,hiPSC colonies,"major effects on colony and cell morphology, inducing rearrangements in cell packing and shape"
same,distribution of ZO-1 along the z-axis,ZO-1,redistribution of ZO-1 along the z-axis
same,number of DSP-positive plaques,"desmosomes; 3D Object Counter, Student's t-test p<0.01",increased in number
same,effect on desmosome localization,desmosomes; GFP-tagged hiPSC,induced re-localization of desmosomes; also recorded: desmosomes relocalized throughout the cell
same,myosin organization through the thickness of the cell,myosin,induced reorganization of the myosin
"C[C@H]1CCC/C=C/[C@@H]2C[C@H](O)C[C@H]2[C@H](O)/C=C/C(=O)O1 [Brefeldin A, brefeldin A]",effect on Golgi organization,Golgi,induced dissociation of the golgi within 30 minutes
(S)-nitro blebbistatin,distribution of ZO-1 along the z-axis,ZO-1,redistribution of ZO-1 along the z-axis
same,effect on Golgi organization,Golgi,induced fragmentation of the organelle
same,relative actin protein abundance and organization,actin; [1],reorganization and relative decrease
same,relative myosin protein abundance and organization,myosin; [1],reorganization and relative decrease
same,myosin organization through the thickness of the cell,myosin,induced reorganization of the myosin
